Experimental data: patent US20100298141A1, “SUBSTITUTED PYRIDINE N-OXIDE HERBICIDES” (E. I. DU PONT DE NEMOURS AND COMPANY, priority 2007, published 2010)

How the values were obtained:
[1] = system: rice; assay: Test C flooded paddy test; assay type: in vivo, Oryza sativa; conditions: Flood, 62 g ai/ha; scale 0 to 100 (0 no effect, 100 complete control)
Outline: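 Compound was added to standing water 3 cm above soil, flood maintained, and plants held in a greenhouse before visual scoring against controls at 13 to 15 days.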

[2] = system: kochia; assay: Test C pre-/postemergence test; assay type: in vivo, Kochia scoparia
Outline: (§1)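 Test chemicals were formulated with surfactant in a non-phytotoxic solvent and sprayed both on freshly planted seeds (preemergence) and on 1- to 4-leaf plants of 2–18 cm (postemergence). Flooded-paddy pots received compound directly into 3 cm of standing water, maintained for the test.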

[3] = system: giant foxtail; assay: Test C pre-/postemergence test; assay type: in vivo, Setaria faberii
Outline: as §1

[4] = system: corn; assay: Test A pre-/postemergence greenhouse test; assay type: in vivo, Zea mays; conditions: for Plant response rating, Corn: 0 to 100 scale where 0 is no effect and 100 is complete control; for Corn plant response rating: 0 to 100 scale
Outline: (§2)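 Sowing in loam/sand; same-day pre (directed soil spray) and post (foliar, 1–2 leaf, 2–10 cm) treatment with surfactant-containing non-phytotoxic solvent formulation; ~10 days in greenhouse; eye-scored injury against untreated plants.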

[5] = system: yellow nutsedge; assay: Test C pre-/postemergence test; assay type: in vivo, Cyperus esculentus
Outline: as §1

[6] = system: morningglory; assay: Test A pre-/postemergence greenhouse test; assay type: in vivo, Ipomoea spp.; conditions: for Plant response rating, Morningglory: 0 to 100 scale where 0 is no effect and 100 is complete control; for Morningglory plant response rating: 0 to 100 scale
Outline: as §2

[7] = system: redroot pigweed; assay: Test A pre-/postemergence greenhouse test; assay type: in vivo, Amaranthus retroflexus; conditions: for Plant response rating, Pigweed: 0 to 100 scale where 0 is no effect and 100 is complete control; for Pigweed plant response rating: 0 to 100 scale
Outline: as §2

[8] = system: morningglory; assay: Test C pre-/postemergence test; assay type: in vivo, Ipomoea coccinea
Outline: as §1

[9] = system: wild oat; assay: Test C pre-/postemergence test; assay type: in vivo, Avena fatua
Outline: as §1

[10] = system: johnsongrass; assay: Test C pre-/postemergence test; assay type: in vivo, Sorghum halepense
Outline: as §1

[11] = system: cocklebur; assay: Test C pre-/postemergence test; assay type: in vivo, Xanthium strumarium; conditions: for Plant response rating, Cocklebur: scale 0 to 100, 0 no effect, 100 complete control
Outline: as §1

[12] = system: bermudagrass; assay: Test C pre-/postemergence test; assay type: in vivo, Cynodon dactylon
Outline: as §1

[13] = system: common (oilseed) sunflower; assay: Test C pre-/postemergence test; assay type: in vivo, Helianthus annuus
Outline: as §1

[14] = system: corn; assay: Test C pre-/postemergence test; assay type: in vivo, Zea mays
Outline: as §1

[15] = system: wheat; assay: Test C pre-/postemergence test; assay type: in vivo, Triticum aestivum
Outline: as §1

[16] = system: Italian ryegrass; assay: Test C pre-/postemergence test; assay type: in vivo, Lolium multiflorum
Outline: as §1

[17] = 62 g ai/ha, Preemergence, scale 0 to 100
[18] = 125 g ai/ha, preemergence, scale 0 (no effect) to 100 (complete control)
[19] = Postemergence, 62 g ai/ha, scale 0 to 100, 0 no effect, 100 complete control
[20] = Postemergence, 125 g ai/ha, scale 0 to 100, 0 no effect, 100 complete control
[21] = Postemergence, 250 g ai/ha, scale 0 to 100, 0 no effect, 100 complete control
[22] = Preemergence, 31 g ai/ha, scale 0 to 100 (0 no effect, 100 complete control)
[23] = preemergence, 250 g ai/ha, scale 0 (no effect) to 100 (complete control)
[24] = Postemergence, 500 g ai/ha, 0 is no effect, 100 is complete control
[25] = Preemergence, 125 g ai/ha, 0 no effect, 100 complete control

## Cn1nc(C(F)(F)F)c(C[S+]([O-])c2ccc(F)c[n+]2[O-])c1OCC(F)(F)F (stereo not shown) [Compound 67]
[1]
  Plant response rating, Rice: 60
[2]; [17]
  Kochia plant response rating: 100
[2]; [18]
  Kochia plant response rating: 100
[2]; Postemergence, 31 g ai/ha
  Plant response rating (0 to 100), Kochia: 0
[2]; [19]
  Plant response rating, Kochia: 0
[2]; [20]
  Plant response rating, Kochia: 60
[2]; [21]
  Plant response rating, Kochia: 60
[2]; [22]
  Plant response rating, Kochia: 80
[2]; [23]
  Kochia plant response rating: 100
[3]; [17]
  Foxtail, Giant plant response rating: 100
[3]; [18]
  Foxtail, Giant plant response rating: 100
[3]; Postemergence, 31 g ai/ha
  Plant response rating (0 to 100), Foxtail, Giant: 0
[3]; [19]
  Plant response rating, Foxtail, Giant: 0
[3]; [20]
  Plant response rating, Foxtail, Giant: 40
[3]; [21]
  Plant response rating, Foxtail, Giant: 70
[3]; [22]
  Plant response rating, Foxtail, Giant: 80
[3]; [23]
  Foxtail, Giant plant response rating: 100
[4]; Postemergence, 125 g ai/ha
  Plant response rating, Corn: 60
[4]; [24]
  Corn plant response rating: 90
[4]; [25]
  Corn plant response rating: 0
[4]; Preemergence, 500 g ai/ha
  Plant response rating, Corn: 80
[5]; [17]
  Nutsedge, Yellow plant response rating: 40
[5]; [18]
  Nutsedge, Yellow plant response rating: 40
[5]; Postemergence, 31 g ai/ha
  Plant response rating (0 to 100), Nutsedge, Yellow: 0
[5]; [19]
  Plant response rating, Nutsedge, Yellow: 0
[5]; [20]
  Plant response rating, Nutsedge, Yellow: 0
[5]; [21]
  Plant response rating, Nutsedge, Yellow: 0
[5]; [22]
  Plant response rating, Nutsedge, Yellow: 0
[5]; [23]
  Nutsedge, Yellow plant response rating: 60
[6]; Postemergence, 125 g ai/ha
  Plant response rating, Morningglory: 70
[6]; [24]
  Morningglory plant response rating: 100
[6]; [25]
  Morningglory plant response rating: 70
[6]; Preemergence, 500 g ai/ha
  Plant response rating, Morningglory: 100
[7]; Postemergence, 125 g ai/ha
  Plant response rating, Pigweed: 80
[7]; [24]
  Pigweed plant response rating: 100
[7]; [25]
  Pigweed plant response rating: 100
[7]; Preemergence, 500 g ai/ha
  Plant response rating, Pigweed: 100
[8]; [17]
  Morningglory plant response rating: 95
[8]; [18]
  Morningglory plant response rating: 100
[8]; Postemergence, 31 g ai/ha
  Plant response rating (0 to 100), Morningglory: 0
[8]; [19]
  Plant response rating, Morningglory: 0
[8]; [20]
  Plant response rating, Morningglory: 0
[8]; [21]
  Plant response rating, Morningglory: 0
[8]; [22]
  Plant response rating, Morningglory: 60
[8]; [23]
  Morningglory plant response rating: 100
[9]; [17]
  Oat, Wild plant response rating: 80
[9]; [18]
  Oat, Wild plant response rating: 98
[9]; Postemergence, 31 g ai/ha
  Plant response rating (0 to 100), Oat, Wild: 10
[9]; [19]
  Plant response rating, Oat, Wild: 20
[9]; [21]
  Plant response rating, Oat, Wild: 60
[9]; [22]
  Plant response rating, Oat, Wild: 80
[9]; [23]
  Oat, Wild plant response rating: 100
[10]; [17]
  Johnsongrass plant response rating: 70
[10]; [18]
  Johnsongrass plant response rating: 80
[10]; Postemergence, 31 g ai/ha
  Plant response rating (0 to 100), Johnsongrass: 0
[10]; [19]
  Plant response rating, Johnsongrass: 0
[10]; [20]
  Plant response rating, Johnsongrass: 0
[10]; [21]
  Plant response rating, Johnsongrass: 0
[10]; [22]
  Plant response rating, Johnsongrass: 65
[10]; [23]
  Johnsongrass plant response rating: 85
[11]; [18]
  Cocklebur plant response rating: 0
[11]; Postemergence, 31 g ai/ha
  Plant response rating (0 to 100), Cocklebur: 0
[11]; Postemergence, 62 g ai/ha
  Plant response rating, Cocklebur: 0
[11]; Postemergence, 125 g ai/ha
  Plant response rating, Cocklebur: 0
[11]; Postemergence, 250 g ai/ha
  Plant response rating, Cocklebur: 0
[12]; 62 g ai/ha, Preemergence, scale 0 to 100 (0 no effect, 100 complete control)
  Bermudagrass plant response rating: 100
[12]; [18]
  Bermudagrass plant response rating: 100
[12]; Postemergence, 31 g ai/ha
  Plant response rating (0 to 100), Bermudagrass: 0
[12]; [19]
  Plant response rating, Bermudagrass: 0
[12]; [20]
  Plant response rating, Bermudagrass: 0
[12]; [21]
  Plant response rating, Bermudagrass: 70
[12]; [22]
  Plant response rating, Bermudagrass: 90
[12]; [23]
  Bermudagrass plant response rating: 100
[13]; [17]
  Sunflower plant response rating: 85
[13]; [18]
  Sunflower plant response rating: 100
[13]; [22]
  Plant response rating, Sunflower: 45
[13]; [23]
  Sunflower plant response rating: 100
[14]; [17]
  Corn plant response rating: 95
[14]; [18]
  Corn plant response rating: 95
[14]; Postemergence, 31 g ai/ha
  Plant response rating (0 to 100), Corn: 0
[14]; [19]
  Plant response rating, Corn: 0
[14]; [21]
  Plant response rating, Corn: 0
[14]; [22]
  Plant response rating, Corn: 45
[14]; [23]
  Corn plant response rating: 100
[15]; [17]
  Wheat plant response rating: 98
[15]; [18]
  Wheat plant response rating: 100
[15]; Postemergence, 31 g ai/ha
  Plant response rating (0 to 100), Wheat: 25
[15]; Postemergence, 62 g ai/ha
  Plant response rating (0 to 100), Wheat: 30
[15]; [20]
  Plant response rating, Wheat: 70
[15]; [21]
  Plant response rating, Wheat: 85
[15]; [22]
  Plant response rating, Wheat: 40
[15]; [23]
  Wheat plant response rating: 100
[16]; [17]
  Ryegrass, Italian plant response rating: 100
[16]; [18]
  Ryegrass, Italian plant response rating: 100
[16]; Postemergence, 31 g ai/ha
  Plant response rating (0 to 100), Ryegrass, Italian: 0
[16]; Postemergence, 62 g ai/ha
  Plant response rating (0 to 100), Ryegrass, Italian: 40
[16]; [20]
  Plant response rating, Ryegrass, Italian: 90
[16]; [21]
  Plant response rating, Ryegrass, Italian: 90
[16]; [22]
  Plant response rating, Ryegrass, Italian: 100
[16]; [23]
  Ryegrass, Italian plant response rating: 100
